{"source": "patent US20260226074A1", "about": "“FUNGICIDAL COMPOSITIONS” (SYNGENTA CROP PROTECTION AG, priority 2023, published 2026)", "type_in_all_cases": "cell-based", "conditions_in_all_cases": "single compound", "key": {"Sclerotinia sclerotiorum": {"test_system": "Sclerotinia sclerotiorum", "experiment": "Sclerotinia sclerotiorum growth inhibition in nutrient broth (microtiter plate, photometric, 72 hrs, 620 nm)", "procedure": "Sclerotinia sclerotiorum (Cottony Rot, White Mold, Etc.); Mycelial fragments of the fungus prepared from a fresh liquid culture were directly mixed into nutrient broth (PDB potato dextrose broth). A DMSO solution of the test compounds was placed into a microtiter plate (96-well format) and the nutrient broth containing the fungal spores was added to it. The test plates were incubated at 24 C and the inhibition of growth was determined photometrically after 72 hrs at 620 nm"}, "Septoria tritici": {"test_system": "Septoria tritici", "experiment": "Septoria tritici growth inhibition in nutrient broth (microtiter plate, photometric, 72 hrs)", "procedure": "Septoria tritici (Leaf Blotch): Conidia of the fungus from cryogenic storage were directly mixed into nutrient broth (PDB potato dextrose broth). A DMSO solution of the test compounds was placed into a microtiter plate (96-well format) and the nutrient broth containing the fungal spores was added to it. The test plates were incubated at 24 C and the inhibition of growth was determined photometrically after 72 hrs."}, "[1]": {"test_system": "Glomerella lagenarium Syn. Colletotrichum lagenarium", "experiment": "Glomerella lagenarium growth inhibition in nutrient broth (microtiter plate, photometric, 72 hrs, 620 nm)", "procedure": "Glomerella lagenarium Syn. Colletotrichum lagenarium (Anthracnose of Cucurbits); Conidia of the fungus from cryogenic storage were directly mixed into nutrient broth (PDB potato dextrose broth). A DMSO solution of the test compounds was placed into a microtiter plate (96-well format) and the nutrient broth containing the fungal spores was added to it. The test plates were incubated at 24 C and the inhibition of growth was determined photometrically after 72 hrs at 620 nm."}, "[2]": {"test_system": "Mycosphaerella arachidis Syn. Cercospora arachidicola", "experiment": "Mycosphaerella arachidis growth inhibition in nutrient broth (microtiter plate, photometric, 5-6 days, 620 nm)", "procedure": "Mycosphaerella arachidis Syn. Cercospora arachidicola (Brown Leaf Spot of Peanut): Conidia of the fungus from cryogenic storage were directly mixed into nutrient broth (PDB potato dextrose broth). A DMSO solution of the test compounds was placed into a microtiter plate (96-well format) and the nutrient broth containing the fungal spores was added to it. The test plates were incubated at 24 C and the inhibition of growth was determined photometrically after 5-6 days at 620 nm"}, "Alternaria solani": {"test_system": "Alternaria solani", "experiment": "Alternaria solani growth inhibition in nutrient broth (microtiter plate, photometric, 48 hrs)", "procedure": "Alternaria solani (Early Blight Tomato/Potato): Conidia of the fungus from cryogenic storage were directly mixed into nutrient broth (PDB potato dextrose broth). A DMSO solution of the test compounds was placed into a microtiter plate (96-well format) and the nutrient broth containing the fungal spores was added to it. The test plates were incubated at 24 C and the inhibition of growth was determined photometrically after 48 hrs."}}, "data": [{"smiles": "Cc1cc(C2=NOCC(Cc3ccc(Br)cc3C)N2)c(Oc2cccc(Cl)c2F)nn1", "note": "(stereo not shown) [Compound A-1.3, 5-[(4-bromo-2-methyl-phenyl)methyl]-3-[3-(3-chloro-2-fluoro-phenoxy)-6-methyl-pyridazin-4-yl]-5,6-dihydro-4H-1,2,4-oxadiazine]", "values": [{"measurement": "Observed Activity", "setting": "Sclerotinia sclerotiorum; 0.02 ppm", "result": 20, "unit": "%"}, {"measurement": "Observed Activity", "setting": "Sclerotinia sclerotiorum; 0.2 ppm", "result": 70, "unit": "%"}, {"measurement": "Observed Activity", "setting": "Septoria tritici; 0.2 ppm", "result": 0, "unit": "%"}, {"measurement": "Observed Activity", "setting": "[1]; 0.02 ppm", "result": 20, "unit": "%"}, {"measurement": "Observed Activity", "setting": "[1]; 0.2 ppm", "result": 90, "unit": "%"}, {"measurement": "Observed Activity", "setting": "[2]; 0.02 ppm", "result": 0, "unit": "%"}, {"measurement": "Observed Activity", "setting": "[2]; 0.2 ppm", "result": 0, "unit": "%"}]}, {"smiles": "CCCn1nccc1-c1c(F)cccc1Nc1nc2ccc(F)c(F)c2nc1C", "note": "[5,6-difluoro-N-[3-fluoro-2-(2-propylpyrazol-3-yl)phenyl]-3-methyl-quinoxalin-2-amine]", "values": [{"measurement": "Observed Activity", "setting": "Alternaria solani; 0.25 ppm", "result": 20, "unit": "%"}, {"measurement": "Observed Activity", "setting": "Alternaria solani; 0.74 ppm", "result": 20, "unit": "%"}, {"measurement": "Observed Activity", "setting": "Sclerotinia sclerotiorum; 6.66 ppm", "result": 0, "unit": "%"}, {"measurement": "Observed Activity", "setting": "Sclerotinia sclerotiorum; 20 ppm", "result": 0, "unit": "%"}, {"measurement": "Observed Activity", "setting": "[1]; 0.66 ppm", "result": 70, "unit": "%"}]}, {"smiles": "CCn1nccc1-c1ccccc1Nc1nc2ccc(F)c(F)c2nc1C", "note": "[N-[2-(2-ethylpyrazol-3-yl)phenyl]-5,6-difluoro-3-methyl-quinoxalin-2-amine]", "values": [{"measurement": "Observed Activity", "setting": "Alternaria solani; 0.08 ppm", "result": 20, "unit": "%"}, {"measurement": "Observed Activity", "setting": "Alternaria solani; 0.246 ppm", "result": 20, "unit": "%"}, {"measurement": "Observed Activity", "setting": "Alternaria solani; 0.74 ppm", "result": 20, "unit": "%"}, {"measurement": "Observed Activity", "setting": "Sclerotinia sclerotiorum; 6.66 ppm", "result": 0, "unit": "%"}, {"measurement": "Observed Activity", "setting": "Sclerotinia sclerotiorum; 20 ppm", "result": 0, "unit": "%"}]}, {"smiles": "Cc1ccc(N(SC(F)(Cl)Cl)S(=O)(=O)N(C)C)cc1", "note": "[Tolylfluanid, tolylfluanid]", "values": [{"measurement": "Observed Activity", "setting": "Sclerotinia sclerotiorum; 0.025 ppm", "result": 0, "unit": "%"}, {"measurement": "Observed Activity", "setting": "Sclerotinia sclerotiorum; 0.074 ppm", "result": 0, "unit": "%"}, {"measurement": "Observed Activity", "setting": "Sclerotinia sclerotiorum; 0.22 ppm", "result": 90, "unit": "%"}, {"measurement": "Observed Activity", "setting": "[1]; 0.025 ppm", "result": 20, "unit": "%"}, {"measurement": "Observed Activity", "setting": "[1]; 0.074 ppm", "result": 50, "unit": "%"}, {"measurement": "Observed Activity", "setting": "[2]; 0.22 ppm", "result": 20, "unit": "%"}, {"measurement": "Observed Activity", "setting": "[2]; 0.66 ppm", "result": 90, "unit": "%"}]}, {"smiles": "CC(Oc1ccc(Cl)cc1Cl)C(=O)NC(C)(C#N)C(C)C", "note": "(stereo not shown) [Fenoxanil, fenoxanil]", "values": [{"measurement": "Observed Activity", "setting": "Sclerotinia sclerotiorum; 2.22 ppm", "result": 0, "unit": "%"}, {"measurement": "Observed Activity", "setting": "Sclerotinia sclerotiorum; 6.66 ppm", "result": 0, "unit": "%"}, {"measurement": "Observed Activity", "setting": "Sclerotinia sclerotiorum; 20 ppm", "result": 0, "unit": "%"}]}, {"smiles": "Cn1nnnc1/C(=N\\OCc1cccc(NC(=O)OC(C)(C)C)n1)c1ccccc1", "note": "[Picarbutrazox, picarbutrazox]", "values": [{"measurement": "Observed Activity", "setting": "Sclerotinia sclerotiorum; 6.66 ppm", "result": 0, "unit": "%"}, {"measurement": "Observed Activity", "setting": "Sclerotinia sclerotiorum; 20 ppm", "result": 0, "unit": "%"}]}, {"smiles": "CCn1nccc1-c1c(Cl)cccc1Cc1cc2ccc(F)c(F)c2nc1C", "note": "[3-[[3-chloro-2-(2-ethylpyrazol-3-yl)phenyl]methyl]-7,8-difluoro-2-methyl-quinoline]", "values": [{"measurement": "Observed Activity", "setting": "Sclerotinia sclerotiorum; 2 ppm", "result": 0, "unit": "%"}, {"measurement": "Observed Activity", "setting": "Sclerotinia sclerotiorum; 6 ppm", "result": 20, "unit": "%"}, {"measurement": "Observed Activity", "setting": "[1]; 0.074 ppm", "result": 20, "unit": "%"}, {"measurement": "Observed Activity", "setting": "[1]; 0.22 ppm", "result": 90, "unit": "%"}, {"measurement": "Observed Activity", "setting": "[1]; 0.74 ppm", "result": 20, "unit": "%"}]}, {"smiles": "CCCn1nccc1-c1c(Cl)cccc1Nc1cc2ccc(F)c(F)c2nc1C", "note": "[N-[3-chloro-2-(2-propylpyrazol-3-yl)phenyl]-7,8-difluoro-2-methyl-quinolin-3-amine]", "values": [{"measurement": "Observed Activity", "setting": "Alternaria solani; 0.008 ppm", "result": 0, "unit": "%"}, {"measurement": "Observed Activity", "setting": "Alternaria solani; 0.025 ppm", "result": 20, "unit": "%"}, {"measurement": "Observed Activity", "setting": "Sclerotinia sclerotiorum; 0.66 ppm", "result": 0, "unit": "%"}, {"measurement": "Observed Activity", "setting": "Sclerotinia sclerotiorum; 2 ppm", "result": 0, "unit": "%"}, {"measurement": "Observed Activity", "setting": "Septoria tritici; 0.008 ppm", "result": 0, "unit": "%"}, {"measurement": "Observed Activity", "setting": "Septoria tritici; 0.025 ppm", "result": 0, "unit": "%"}, {"measurement": "Observed Activity", "setting": "Septoria tritici; 0.074 ppm", "result": 20, "unit": "%"}, {"measurement": "Observed Activity", "setting": "Septoria tritici; 0.22 ppm", "result": 20, "unit": "%"}]}, {"smiles": "Cc1ccc(CC2CON=C(c3cc(C)nnc3Oc3cccc(Cl)c3F)N2)c(Cl)c1", "note": "(stereo not shown) [Compound A-1.1, 3-[3-(3-chloro-2-fluoro-phenoxy)-6-methyl-pyridazin-4-yl]-5-[(2-chloro-4-methyl-phenyl)methyl]-5,6-dihydro-4H-1,2,4-oxadiazine]", "values": [{"measurement": "Observed Activity", "setting": "Alternaria solani; 0.01 ppm", "result": 50, "unit": "%"}, {"measurement": "Observed Activity", "setting": "Septoria tritici; 0.01 ppm", "result": 0, "unit": "%"}, {"measurement": "Observed Activity", "setting": "Septoria tritici; 0.1 ppm", "result": 0, "unit": "%"}, {"measurement": "Observed Activity", "setting": "[1]; 0.01 ppm", "result": 20, "unit": "%"}, {"measurement": "Observed Activity", "setting": "[1]; 0.1 ppm", "result": 90, "unit": "%"}]}, {"smiles": "COC(=O)NCc1cc(/C(C)=N/OCc2cccc(C)n2)ccc1Cl", "note": "[Pyribencarb, pyribencarb]", "values": [{"measurement": "Observed Activity", "setting": "Sclerotinia sclerotiorum; 0.008 ppm", "result": 20, "unit": "%"}, {"measurement": "Observed Activity", "setting": "[1]; 0.22 ppm", "result": 20, "unit": "%"}]}]}
